Source: US11814680B2, “Biomarkers for detecting senescent cells” (Universität für Bodenkultur Wien, priority 2017, dated 2023)
Marks after values point to notes of the source that are not given here.

Columns and labels:
p16-3MR mice [1] = experiment: RT-qPCR verification of serum circulating microRNA changes, one-way ANOVA; assay type: in vivo, mouse; details: for regulation in serum after exposure to DOX compared to PBS: independent of gender, in words; for One-way ANOVA Senolytic Treatment (DOX/GCV) / One-way ANOVA Senescence (DOX vs PBS): serum; for One-way ANOVA Senolytic Treatment (DOX/GCV): DOX/GCV compared to DOX; for One-way ANOVA Senescence (DOX vs PBS): n=8 per group, male and female mice; for change of serum level following senolytic treatment (DOX/GCV compared to DOX): p<0.05, in words
Description: p16-3MR (Demaria et al, 2014, Developmental Cell 31:722-733) mice were bred in house and maintained in the AALAC-accredited Buck Institute for Research on Aging (Novato, Calif.) animal facility. 10 to 12-week-old p16-3MR […] mice were used for experiments. Mice were divided in 4 groups and each group consisted of 8 animals, 5 female, and 3 male, respectively. In group A, control mice were injected with PBS. In group B, mice were treated with Ganciclovir (GCV) (Sigma-Aldrich) dissolved in PBS for 5 consecutive days. In group C, mice were treated with one dose of Doxorubicine hydrochloride (Sigma-Aldrich) dissolved in PBS. In group D, mice were first treated with Doxorubicine and then treated 10 days later with GCV. Mice were intraperitoneally injected with one dose of 10 mg/kg of Doxorubicine hydrochloride, and GCV was administered daily by intraperitoneal injections for 5 consecutive days at concentration of 25 mg/kg in PBS. 4 days after the last GCV dose, animals were euthanized with CO2 and blood was withdrawn immediately. Blood was then incubated for 30 min at room temperature and centrifuged at 3400×g for 10 min. Serum was carefully collected in a sterile tube without disturbing the cell pellet and stored at −80° C. for further experiments.
Total RNA extraction was performed from 200 μl of serum using the Qiagen miRNeasy extraction kit (Qiagen, Germany). RNA yield was quality checked for homogenous extraction efficiency and hemolysis on the basis qPCR amplification of spiked-in as well as hemolysis-responsive RNAs (Blondal et al). In total 2 μl total RNA were used for reverse transcription using the Exiqon Universal RT kit II (Exiqon, Denmark). The obtained cDNA samples were pre-diluted 1:40 and subsequently mixed with SYBR Green® Mix (Exiqon, Denmark) to achieve a 1:100 dilution. The mix was distributed to primer-coated 384-well plates containing dried primer pairs for 96 selected microRNA or quality control assays. QPCR amplification was performed on a Roche LightCycler 480 II, using the manufacturer's recommendation for annealing, extension and denaturation.
Raw Cq-values were computed using the 2nd derivative method. Melting curves were checked for peaks to ensure specificity of the amplification reactions. Cq-values were subsequently normalized using Spike-In controls as references, to reduce technical noise in the data.
(§1) Statistical analysis was performed using Medcalc (version 18.2.1). Normal distribution was assessed using D'Agostino-Pearson test, where normality was accepted at p>0.05. One-way ANOVA together together with Student-Newman-Keuls test for all pairwise comparisons (post-hoc tests) was used to identify significant changes between groups (p<0.05). To assess the discriminatory power of individual microRNAs, receiver operating characteristic (ROC) analysis was applied. ROC curves were plotted using sensitivity (y-axis) and 1-specificity (x-axis) and the area under the ROC curve (AUC) was calculated. MicroRNAs with AUC-values of >0.7 were considered as good discriminators/biomarkers. MicroRNAs with AUC-values >0.8 were considered very good discriminators/biomarkers.

p16-3MR mice [2] = experiment: ROC analysis of discriminatory power of circulating microRNAs; assay type: in vivo, mouse; details: serum, RT-qPCR, symbol after the number = significance; for ROC Analysis AUC Senescence: DOX vs PBS; for ROC Analysis AUC Senolytic Treatment: DOX/GCV vs DOX
Description: as §1
In order to assess the diagnostic power of circulating microRNAs for the exposure with senescence inducing substances (DOX) as well as the efficacy of senolytic treatment, ROC analysis was performed and the area-under-the-curve (AUC) was calculated. […] Table 23 below summarizes AUC values as well as 95% confidence intervals for 24 selected circulating microRNAs.

p16-3MR mice [3] = experiment: Pearson correlation of serum miRNA levels to miR-34a-5p and miR-27a-3p; design: species or system mouse; details: for Pearson Correlcation coefficient miR44a-5p: correlation of serum level to miR44a-5p (so in the source); for Pearson Correlcation coefficient miR-27a-3p: correlation of serum level to miR-27a-3p
Text: In order to extend these finding to potential additional miRNAs, we performed Pearson correlation to miR-34a-5p and miR-27a-3p, resulting in additional potential biomarkers (Table 18).

| Substance | regulation in serum after exposure to DOX compared to PBS (p16-3MR mice [1]) | One-way ANOVA Senolytic Treatment (DOX/GCV) (p16-3MR mice [1]) | One-way ANOVA Senescence (DOX vs PBS) (p16-3MR mice [1]) | ROC Analysis AUC Senescence (p16-3MR mice [2]) | ROC Analysis AUC Senolytic Treatment (p16-3MR mice [2]) | Pearson Correlcation coefficient miR44a-5p (p16-3MR mice [3]) | Pearson Correlcation coefficient miR-27a-3p (p16-3MR mice [3]) | change of serum level following senolytic treatment (DOX/GCV compared to DOX) (p16-3MR mice [1]) |
| --- | --- | --- | --- | --- | --- | --- | --- | --- |
| miR-34a-3p: circulating microRNA biomarker, SEQ ID No. 59 (CAAUCAGCAAGUAUACUGCCCU; expressed or natural sequence; listed as Homo sapiens) | significantly (up- or down-regulated) | ○ | * (significant p < 0.05) | 0.953* | 0.5° | – | – | – |
| mmu-miR-223-3p: circulating microRNA, SEQ ID No. 19 (UGUCAGUUUGUCAAAUACCCCA; expressed or natural sequence; listed as Homo sapiens) | – | – | – | – | – | 0.55 | 0.83 | – |
| miR-199b-5p: circulating microRNA biomarker, SEQ ID No. 82 (CCCAGUGUUUAGACUAUCUGUUC; expressed or natural sequence; listed as Homo sapiens) | significantly (up- or down-regulated) | + (by trend p < 0.2) | * (significant p < 0.05) | 0.750+ | 0.734+ | – | – | – |
| miR-181b-5p: circulating microRNA biomarker, SEQ ID No. 84 (AACAUUCAUUGCUGUCGGUGGGU; expressed or natural sequence; listed as Homo sapiens) | – | + (by trend p < 0.2) | + (by trend p < 0.2) | 0.680+ | 0.75+ | – | – | significantly changed |
| miR-409-3p: circulating microRNA biomarker, SEQ ID No. 89 (GAAUGUUGCUCGGUGAACCCCU; expressed or natural sequence; listed as Homo sapiens) | – | * (significant p < 0.05) | ○ | 0.609° | 0.859* | – | – | significantly changed |
| mmu-miR-339-5p: circulating microRNA, SEQ ID No. 10 (UCCCUGUCCUCCAGGAGCUCACG; expressed or natural sequence; listed as Homo sapiens) | – | – | – | – | – | 0.64 | 0.87 | – |
| mmu-miR-10a-3p: circulating microRNA, SEQ ID No. 16 (CAAAUUCGUAUCUAGGGGAAUA; expressed or natural sequence; listed as Homo sapiens) | – | – | – | – | – | 0.52 | 0.90 | – |
| miR-483-5p: circulating microRNA biomarker, SEQ ID No. 91 (AAGACGGGAGGAAAGAAGGGAG; expressed or natural sequence; listed as Homo sapiens) | – | * (significant p < 0.05) | ○ | 0.563° | 0.766* | – | – | significantly changed |
| mmu-miR-652-3p: circulating microRNA, SEQ ID No. 13 (AAUGGCGCCACUAGGGUUGUG; expressed or natural sequence; listed as Homo sapiens) | – | – | – | – | – | 0.77 | 0.66 | – |
| miR-183-3p: circulating microRNA biomarker, SEQ ID No. 85 (GUGAAUUACCGAAGGGCCAUAA; expressed or natural sequence; listed as Homo sapiens) | – | * (significant p < 0.05) | ○ | 0.563° | 0.891* | – | – | significantly changed |
| mmu-miR-30b-5p: circulating microRNA, SEQ ID No. 9 (UGUAAACAUCCUACACUCAGCU; expressed or natural sequence; listed as Homo sapiens) | – | – | – | – | – | 0.70 | 0.65 | – |
| miR-215-5p: circulating microRNA biomarker, SEQ ID No. 86 (AUGACCUAUGAAUUGACAGAC; expressed or natural sequence; listed as Homo sapiens) | – | * (significant p < 0.05) | ○ | 0.531° | 0.922* | – | – | significantly changed |
| miR-31-5p: circulating microRNA biomarker, SEQ ID No. 87 (AGGCAAGAUGCUGGCAUAGCU; expressed or natural sequence; listed as Homo sapiens) | – | ○ | + (by trend p < 0.2) | 0.688+ | 0.672° | – | – | significantly changed |
| miR-23b-3p: circulating microRNA biomarker, SEQ ID No. 47 (AUCACAUUGCCAGGGAUUACC; expressed or natural sequence; listed as Homo sapiens) | – | * (significant p < 0.05) | ○ | 0.563° | 0.875* | – | – | significantly changed |
| miR-199a-5p: circulating microRNA biomarker, SEQ ID No. 81 (CCCAGUGUUCAGACUACCUGUUC; expressed or natural sequence; listed as Homo sapiens) | significantly (up- or down-regulated) | + (by trend p < 0.2) | * (significant p < 0.05) | 0.906* | 0.781* | – | – | – |
| miR-125a-5p: circulating microRNA biomarker, SEQ ID No. 90 (UCCCUGAGACCCUUUAACCUGUGA; expressed or natural sequence; listed as Homo sapiens) | – | * (significant p < 0.05) | + (by trend p < 0.2) | 0.742+ | 0.789* | – | – | significantly changed |
| miR-375-5p: circulating microRNA biomarker, SEQ ID No. 88 (UUUGUUCGUUCGGCUCGCGUGA; expressed or natural sequence; listed as Homo sapiens) | – | * (significant p < 0.05) | ○ | 0.570° | 0.859* | – | – | significantly changed |
| miR-345-5p: circulating microRNA biomarker, SEQ ID No. 83 (GCUGACUCCUAGUCCAGGGCUC; expressed or natural sequence; listed as Homo sapiens) | significantly (up- or down-regulated) | * (significant p < 0.05) | * (significant p < 0.05) | 0.781* | 0.875* | – | – | – |
